Results as given in ChEMBL document CHEMBL3044881, “Synthesis and biological evaluation of novel series of chalcone derivatives as inhibitors of cyclooxygenase and LPS-induced TNF- with potent antioxidant properties” (Med Chem Res, 2012).

Tests used:
[1] = system: Radical scavenging activity; assay: Antioxidant activity assessed as DPPH free radical scavenging activity at 10 uM by spectrophotometric analysis; assay type: functional
[2] = system: Blood; assay: Anti-inflammatory activity in Homo sapiens (human) whole blood assessed inhibition of LPS-induced TNF-alpha production treated 30 min before LPS challenge measured after 5 hr; assay type: functional, tissue-based
[3] = Antioxidant activity assessed as hydroxyl radical scavenging activity at 10 uM by spectrophotometric analysis; assay type: functional
[4] = system: Blood; assay: Anti-inflammatory activity in Homo sapiens (human) whole blood assessed inhibition of LPS-induced TNF-alpha production at 10 uM treated 30 min before LPS challenge measured after 5 hr; assay type: functional
[5] = Antioxidant activity assessed as reduction of K3Fe(CN)6 to Fe2+ at 10 uM after 10 min; assay type: functional; set-up: scale not given: the % may be the effect or the level left
[6] = system: Blood; assay: Anti-inflammatory activity in Homo sapiens (human) whole blood assessed inhibition of LPS-induced TNF-alpha production at 1 uM treated 30 min before LPS challenge measured after 5 hr; assay type: functional
[7] = biological target: T1, Prostaglandin G/H synthase 2 (Ovis aries) (UniProt P79208); assay: Inhibition of Ovis aries (sheep) COX2 at 1 mM after 5 min by colorimetric analysis
T1 sequence (whole entry): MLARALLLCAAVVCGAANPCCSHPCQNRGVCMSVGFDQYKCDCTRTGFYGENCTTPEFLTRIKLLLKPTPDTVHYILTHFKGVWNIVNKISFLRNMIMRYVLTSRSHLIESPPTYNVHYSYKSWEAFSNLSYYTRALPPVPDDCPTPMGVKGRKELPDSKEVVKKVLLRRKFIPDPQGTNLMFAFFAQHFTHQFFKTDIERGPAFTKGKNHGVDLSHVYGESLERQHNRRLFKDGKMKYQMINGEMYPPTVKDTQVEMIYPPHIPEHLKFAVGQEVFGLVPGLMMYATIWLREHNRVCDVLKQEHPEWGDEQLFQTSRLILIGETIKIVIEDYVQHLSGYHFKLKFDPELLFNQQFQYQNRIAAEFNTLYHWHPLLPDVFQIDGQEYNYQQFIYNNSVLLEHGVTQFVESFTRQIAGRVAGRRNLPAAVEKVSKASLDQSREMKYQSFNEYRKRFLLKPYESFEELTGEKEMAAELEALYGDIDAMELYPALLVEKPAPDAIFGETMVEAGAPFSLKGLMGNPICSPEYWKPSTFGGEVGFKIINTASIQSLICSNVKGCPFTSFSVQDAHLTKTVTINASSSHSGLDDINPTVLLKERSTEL

[8] = biological target: T2, Beta-glucuronidase (Homo sapiens) (UniProt P08236); assay: Inhibition of beta-glucuronidase (unknown origin) using p-nitrophenyl-beta-D-glucopyranosiduronic acid as substrate at 1 mM after 30 min
T2 sequence (whole entry): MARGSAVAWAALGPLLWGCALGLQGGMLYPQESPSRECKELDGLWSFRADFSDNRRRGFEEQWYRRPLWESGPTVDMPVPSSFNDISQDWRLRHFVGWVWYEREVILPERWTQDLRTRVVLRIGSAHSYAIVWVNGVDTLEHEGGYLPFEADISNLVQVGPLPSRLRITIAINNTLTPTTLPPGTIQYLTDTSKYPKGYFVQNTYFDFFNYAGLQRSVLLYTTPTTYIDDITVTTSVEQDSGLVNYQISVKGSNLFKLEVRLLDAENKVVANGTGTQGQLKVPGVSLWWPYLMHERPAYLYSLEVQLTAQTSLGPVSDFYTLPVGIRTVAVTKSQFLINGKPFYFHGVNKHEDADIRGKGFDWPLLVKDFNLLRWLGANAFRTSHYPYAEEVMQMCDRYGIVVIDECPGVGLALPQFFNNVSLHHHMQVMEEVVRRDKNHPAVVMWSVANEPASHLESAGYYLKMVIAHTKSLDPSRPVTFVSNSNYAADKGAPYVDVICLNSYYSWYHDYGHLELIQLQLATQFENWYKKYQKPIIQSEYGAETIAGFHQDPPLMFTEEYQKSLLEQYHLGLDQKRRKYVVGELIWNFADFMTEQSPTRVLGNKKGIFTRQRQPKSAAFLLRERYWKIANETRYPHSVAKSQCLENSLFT

[9] = biological target: Trypsin (Homo sapiens) (UniProt P07477+P07478+P35030); assay: Inhibition of trypsin (unknown origin) assessed as hydrolysis of bovine serum albumin at 1 mM after 20 min; assay type: protein assay
[10] = biological target: T3, Prostaglandin G/H synthase 1 (Ovis aries) (UniProt P05979); details: at 1 mM
T3 sequence (whole entry): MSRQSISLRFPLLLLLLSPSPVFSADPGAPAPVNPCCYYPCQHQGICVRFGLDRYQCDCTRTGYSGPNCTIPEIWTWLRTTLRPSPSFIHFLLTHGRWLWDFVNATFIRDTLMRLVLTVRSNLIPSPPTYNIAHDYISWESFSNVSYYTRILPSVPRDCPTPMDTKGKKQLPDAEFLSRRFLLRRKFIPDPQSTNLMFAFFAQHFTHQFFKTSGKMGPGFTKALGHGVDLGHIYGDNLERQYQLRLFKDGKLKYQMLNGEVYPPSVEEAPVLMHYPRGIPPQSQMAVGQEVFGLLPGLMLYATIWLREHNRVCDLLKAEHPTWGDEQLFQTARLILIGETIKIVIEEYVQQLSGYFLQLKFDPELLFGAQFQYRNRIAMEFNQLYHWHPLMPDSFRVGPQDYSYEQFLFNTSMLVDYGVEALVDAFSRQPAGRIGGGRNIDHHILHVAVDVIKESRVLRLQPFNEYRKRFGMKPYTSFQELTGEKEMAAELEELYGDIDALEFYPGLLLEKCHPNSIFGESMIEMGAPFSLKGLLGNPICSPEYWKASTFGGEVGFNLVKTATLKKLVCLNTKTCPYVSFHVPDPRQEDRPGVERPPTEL
Description: Inhibition of Ovis aries (sheep) COX1 at 1 mM after 5 min by colorimetric analysis

[11] = Homo sapiens, Blood, read-out: IC50

Compound	Activity [1] [%]	IC50 [2, 11] [µM]	Activity [3] [%]	inhibition at 10 µM [4] [%]	Activity [5] [%]	inhibition at 1 µM [6] [%]	inhibition [7] [%]	IC50 [2]	inhibition [8] [%]	inhibition [9] [%]	inhibition [10] [%]
COc1cc(OC)c(C(=O)/C=C/c2ccc(Cl)cc2Cl)c(O)c1Br	17.3	8.9	30.2	53	17.4	46	–	–	–	–	–
CC(=O)Oc1ccccc1C(=O)O	–	–	–	–	–	–	38.5	–	–	–	–
COc1cc(OC)c(C(=O)/C=C/c2ccccc2F)c(O)c1Br	29.9	–	16.8	38	29.7	24	–	Not Active	–	–	–
COc1cc(OC)c(C(=O)/C=C/c2cccc(Br)c2)c(O)c1Br	24.1	8.2	38.2	57	19.6	13	–	–	–	–	–
COc1cc(OC)c(C(=O)/C=C/c2ccccc2Cl)c(O)c1Br	15.8	15.9	32.3	72	14.3	40	–	–	–	–	–
COc1cc(OC)c(C(=O)/C=C/c2cccc([N+](=O)[O-])c2)c(O)c1Br	23.7	10.1	18.8	50	26.2	31	–	–	–	–	–
COc1cc(OC)c(C(=O)/C=C/c2cccnc2)c(O)c1Br	21.1	0.1	44.1	85	16.6	45	–	–	–	–	–
COc1ccc(/C=C/C(=O)c2c(OC)cc(OC)c(Br)c2O)cc1	38.4	7.4	49.4	53	34.3	38	–	–	–	–	–
O=C(O)c1cc(O)c(O)c(O)c1	91	–	–	–	–	–	–	–	–	–	–
COc1cc(OC)c(C(=O)/C=C/c2cccc(C#N)c2)c(O)c1Br	27.4	0.7	25.6	57	17.3	26	–	–	–	–	–
COc1cc(OC)c(C(=O)/C=C/c2cccc(F)c2)c(O)c1Br	12	1.2	–	63	12.2	36	–	–	–	–	–
COc1ccc(/C=C/C(=O)c2c(OC)cc(OC)c(Br)c2O)c(OC)c1	20.2	10.2	28.8	59	18.4	21	57.8	–	41.3	39.5	52.4
C[C@H]1C[C@H]2[C@@H]3CCC4=CC(=O)C=C[C@]4(C)[C@@]3(F)[C@@H](O)C[C@]2(C)[C@@]1(O)C(=O)CO [BETAMETHASONE]	–	1	–	87	–	72	–	–	–	–	–
O=C(O)c1ccccc1O	–	–	–	–	–	–	–	–	26.5	–	–
COc1cc(OC)c(C(=O)/C=C/c2ccc(Cl)cc2)c(O)c1Br	18.4	1.4	38.2	51	15.7	43	–	–	–	–	–
COc1cc(OC)c(C(=O)/C=C/c2cc[nH]c2)c(O)c1Br	26.7	0.6	–	78	26	42	–	–	–	–	–
O=C1O[C@H]([C@@H](O)CO)C(O)=C1O	–	–	41.2	–	76.6	–	–	–	–	–	–
COc1cc(OC)c(C(=O)/C=C/c2ccc(Cl)c([N+](=O)[O-])c2)c(O)c1Br	14.3	14.2	–	49	26	34	–	–	–	–	–
COc1cc(/C=C/C(=O)c2c(OC)cc(OC)c(Br)c2O)cc(OC)c1	–	11.4	23.5	37	18.4	25	–	–	–	–	–
COc1cc(OC)c(C(=O)/C=C/c2ccccc2C(F)(F)F)c(O)c1Br	13.7	3.2	47	52	10	27	–	–	–	–	–
COc1ccc(OC)c(/C=C/C(=O)c2c(OC)cc(OC)c(Br)c2O)c1	23	10.9	31.6	57	22.9	22	–	–	–	–	–
